Assay results: US8664399B2, “Substituted heterocyclic compounds as ion channel modulators” (Gilead Sciences, Inc., priority 2008, dated 2014)

Biological target: T1, human cardiac sodium channel, hNav1.5 (Homo sapiens, UniProt Q14524)
T1 construct: host or cells: HEK293
Assay: Late INa screening assay (automated whole cell patch clamp, PatchXpress; late current generated with 10 μM Tefluthrin)
Type: cell-based
Conditions: 1 μM test compound; HEK293 cells expressing hNav1.5
Procedure: The late sodium current (Late INa) and peak sodium current (Peak INa) assays were performed on an automated electrophysiology platform, PatchXpress 7000A (MDS Analytical Technologies, Sunnyvale, Calif.), which uses the whole cell patch clamp technique to measure currents through the cell membrane of up to 16 cells at a time. The assay uses an HEK293 (human embryonic kidney) cell line heterologously expressing the wild-type human cardiac sodium channel, hNav1.5, purchased from Millipore (Billerica, Mass.). No beta subunits were coexpressed with the Na channel alpha subunit. Cells were maintained with standard tissue culture procedures and stable channel expression was maintained with 400 μg/ml Geneticin in the culture medium. Cells isolated for use on PatchXpress were incubated for 5 minutes in Versene 1X and then for 2 minutes in 0.0125% Trypsin-EDTA (both at 37° C.) to ensure that 80-90% of the cells are single and not part of a cell cluster. Experiments were carried out at 24-27° C.
For both the Late INa and Peak INa assays, series resistance compensation was set to 50% and whole-cell compensation is performed automatically. Currents were low-pass filtered at 10 kHz and digitized at 31.25 kHz. Currents through open sodium channels were automatically recorded and stored in the DataXpress2 database (MDS Analytical Technologies, Sunnyvale, Calif.). Analysis is performed using DataXpress2 analysis software and data are compiled in Excel.
Compound stocks were routinely made in glass vials to 10 mM in dimethyl sulfoxide (DMSO). In some cases, when compounds were not soluble in DMSO, they were made in 100% ethanol. Stocks were sonicated as necessary. The extracellular solution for screening Late INa was composed of: 140 mM NaCl, 4 mM KCl, 1.8 mM CaCl2, 0.75 mM MgCl2, and 5 mM HEPES with pH adjusted to 7.4 using NaOH. The extracellular solution for screening Peak INa was composed of: 20 mM NaCl, 120 mM N-methyl-D glucamine, 4 mM KCl, 1.8 mM CaCl2, 0.75 mM MgCl2, and 5 mM HEPES with pH adjusted to 7.4 using HCl. The intracellular solution used to perfuse the inside of the cells for both the Late INa and Peak INa assays contained: 120 mM CsF, 20 mM CsCl, 5 mM EGTA, 5 mM HEPES and pH adjusted to 7.4 with CsOH. […] The 0Na extracellular solution used at the end of each experiment for the Late INa and Peak INa assays to measure baseline current contained: 140 mM N-methyl-D-glucamine; 4 mM KCl; 1.8 mM CaCl2; 0.75 mM MgCl2; 5 mM HEPES and pH was adjusted to 7.4 with HCl.
For the Late INa assay, sodium channels were activated every 10 seconds (0.1 Hz) by depolarizing the cell membrane to −20 mV for 250 milliseconds (ms) from a holding potential of −120 mV. In response to a −20 mV voltage step, typical Nav1.5 sodium currents activate rapidly to a peak negative current and then inactivate nearly completely within 3-4 ms.
All compounds were tested to determine their activity in blocking the late sodium current. Late INa current was generated by adding 10 μM Tefluthrin (pyrethroid) to the extracellular solution while recording Na currents.

T1 sequence (Q14524 whole entry): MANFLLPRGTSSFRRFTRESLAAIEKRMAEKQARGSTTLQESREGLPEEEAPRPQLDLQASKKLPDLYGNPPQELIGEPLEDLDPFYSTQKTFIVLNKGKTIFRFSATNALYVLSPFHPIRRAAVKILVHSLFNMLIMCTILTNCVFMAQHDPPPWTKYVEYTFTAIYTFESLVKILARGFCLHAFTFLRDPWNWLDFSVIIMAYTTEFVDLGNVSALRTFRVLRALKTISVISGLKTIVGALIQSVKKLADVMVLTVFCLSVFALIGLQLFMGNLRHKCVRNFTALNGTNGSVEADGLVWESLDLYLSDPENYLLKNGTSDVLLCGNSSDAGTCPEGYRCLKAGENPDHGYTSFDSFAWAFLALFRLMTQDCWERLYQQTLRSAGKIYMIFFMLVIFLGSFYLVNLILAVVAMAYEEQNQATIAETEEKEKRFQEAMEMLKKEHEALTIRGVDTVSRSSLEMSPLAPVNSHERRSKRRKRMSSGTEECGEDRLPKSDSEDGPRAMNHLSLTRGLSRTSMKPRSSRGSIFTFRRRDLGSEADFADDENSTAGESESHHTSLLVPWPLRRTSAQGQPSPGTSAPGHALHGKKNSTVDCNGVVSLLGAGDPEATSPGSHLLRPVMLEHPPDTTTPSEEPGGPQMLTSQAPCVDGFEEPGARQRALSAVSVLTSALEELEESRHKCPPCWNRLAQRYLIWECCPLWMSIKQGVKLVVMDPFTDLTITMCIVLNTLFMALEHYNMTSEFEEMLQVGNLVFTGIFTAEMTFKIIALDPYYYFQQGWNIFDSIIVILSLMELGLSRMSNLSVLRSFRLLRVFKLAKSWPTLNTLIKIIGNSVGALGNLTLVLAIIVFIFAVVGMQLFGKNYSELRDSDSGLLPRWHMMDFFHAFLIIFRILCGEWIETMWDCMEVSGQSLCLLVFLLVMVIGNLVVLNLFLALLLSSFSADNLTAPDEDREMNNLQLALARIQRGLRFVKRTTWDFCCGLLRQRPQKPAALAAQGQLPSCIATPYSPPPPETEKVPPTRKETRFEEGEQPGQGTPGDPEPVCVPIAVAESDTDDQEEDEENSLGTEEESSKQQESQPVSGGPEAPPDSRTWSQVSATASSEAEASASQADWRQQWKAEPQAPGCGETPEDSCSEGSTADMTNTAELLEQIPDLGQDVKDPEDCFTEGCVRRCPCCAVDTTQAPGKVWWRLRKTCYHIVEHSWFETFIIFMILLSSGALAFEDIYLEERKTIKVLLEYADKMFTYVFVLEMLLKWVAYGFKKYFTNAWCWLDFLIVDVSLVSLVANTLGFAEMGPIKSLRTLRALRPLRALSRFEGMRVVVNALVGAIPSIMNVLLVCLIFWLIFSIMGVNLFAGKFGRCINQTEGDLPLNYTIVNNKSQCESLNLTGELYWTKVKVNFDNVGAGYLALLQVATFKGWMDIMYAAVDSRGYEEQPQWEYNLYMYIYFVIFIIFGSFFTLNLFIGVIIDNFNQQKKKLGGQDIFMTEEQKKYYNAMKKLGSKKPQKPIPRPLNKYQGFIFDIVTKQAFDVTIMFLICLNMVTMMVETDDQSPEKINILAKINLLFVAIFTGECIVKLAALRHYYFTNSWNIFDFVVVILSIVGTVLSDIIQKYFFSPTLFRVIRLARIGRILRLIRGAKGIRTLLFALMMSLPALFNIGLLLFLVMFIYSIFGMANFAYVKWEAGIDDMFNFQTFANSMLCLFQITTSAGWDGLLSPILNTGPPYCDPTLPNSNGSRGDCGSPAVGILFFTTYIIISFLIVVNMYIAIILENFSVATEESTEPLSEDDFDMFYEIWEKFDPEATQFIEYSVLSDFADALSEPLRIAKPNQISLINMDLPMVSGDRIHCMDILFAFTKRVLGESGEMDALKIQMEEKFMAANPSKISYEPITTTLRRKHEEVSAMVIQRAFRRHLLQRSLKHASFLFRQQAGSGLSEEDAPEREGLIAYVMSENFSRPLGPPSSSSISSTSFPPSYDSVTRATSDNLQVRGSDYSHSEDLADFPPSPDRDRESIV

SMILES	Late Ina % blk (1 μM test cmpd) [%]
Cc1nc2ccccc2c(C)c1C(=O)OCc1ccccc1Br [PT-028, 2-bromobenzyl 2,4-dimethylquinoline-3-carboxylate]	39.2

Same assay, conditions: 10 μM test compound; HEK293 cells expressing hNav1.5; read-out: Late Ina % blk (10 μM test cmpd)

SMILES	inhibition at 10 µM [%]
Cc1nc2ccc(Cl)cc2c(-c2ccccc2F)c1C(=O)OC(C)(C)C [PT-022, Tert-butyl 6-chloro-4-(2-fluorophenyl)-2-methylquinoline-3-carboxylate]	46.9
Cc1nc2ccc(Cl)cc2c(-c2ccccc2)c1C(=O)NCc1ccc(F)cc1 [PT-003, 6-chloro-N-(4-fluorobenzyl)-2-methyl-4-phenylquinoline-3-carboxamide]	26.3
Cc1nc2ccccc2c(-c2ccccc2)c1C(=O)OCc1ccccc1 [PT-001, benzyl 2-methyl-4-phenylquinoline-3-carboxylate]	78.3
Cc1nc2ccccc2c(C)c1-c1nnc(C(C)(C)c2ccc(Cl)cc2)o1 [PT-031, 3-{5-[2-(4-chlorophenyl)propan-2-yl]-1,3,4-oxadiazol-2-yl}-2,4-dimethylquinoline]	64.4
CCOC(=O)c1c(CN2C(=O)c3ccccc3C2=O)nc2ccc(Cl)cc2c1-c1ccccc1 [PT-007, ethyl 6-chloro-2-[(1,3-dioxo-1,3-dihydro-2H-isoindol-2-yl)methyl]-4-phenylquinoline-3-carboxylate]	24
CCOC(=O)c1c(C)nc2ccc(Cl)cc2c1-c1ccccc1Cl [PT-021, ethyl 6-chloro-4-(2-chlorophenyl)-2-methylquinoline-3-carboxylate]	70.2
Cc1nc2ccc(Cl)cc2c(-c2ccccc2)c1C(=O)N1CCCCC1 [PT-013, (6-chloro-2-methyl-4-phenylquinolin-3-yl)(piperidin-1-yl)methanone]	30.2
N#Cc1c(N)nc2ccc(Cl)cc2c1-c1ccccc1 [PT-004, 2-amino-6-chloro-4-phenylquinoline-3-carbonitrile]	15.2
CCOCc1nc2ccccc2c(C)c1C(=O)OCC [PT-026, ethyl 2-(ethoxymethyl)-4-methylquinoline-3-carboxylate]	23.4
CCOC(=O)c1c(C)nc2ccc(Cl)cc2c1-c1ccccc1 [PT-029, ethyl 6-chloro-2-methyl-4-phenylquinoline-3-carboxylate]	70.2
CCOC(=O)c1c(CN(C)C)nc2ccc(Cl)cc2c1-c1ccccc1 [PT-024, ethyl 6-chloro-2-[(dimethylamino)methyl]-4-phenylquinoline-3-carboxylate]	57.8
CCOC(=O)c1c(CCl)nc2ccc(Cl)cc2c1-c1ccccc1 [PT-006, ethyl 6-chloro-2-(chloromethyl)-4-phenylquinoline-3-carboxylate]	48.8
Cc1nc2ccc(Cl)cc2c(C)c1C(=O)OCc1ccccc1Br [PT-032, 2-bromobenzyl 6-chloro-2,4-dimethylquinoline-3-carboxylate]	82.4
Cc1nc2ccc(Cl)cc2c(-c2ccccc2Cl)c1C(=O)OCc1ccccc1Br [PT-027, 2-bromobenzyl 6-chloro-4-(2-chlorophenyl)-2-methylquinoline-3-carboxylate]	45.3
Cc1nc2ccc(Cl)cc2c(-c2ccccc2)c1C(C)O (centres unmarked) [PT-023, 1-(6-chloro-2-methyl-4-phenylquinolin-3-yl)ethanol]	29.8
Cc1nc2ccccc2c(C)c1C(=O)OCc1ccccc1Br [PT-028, 2-bromobenzyl 2,4-dimethylquinoline-3-carboxylate]	82.4
Cc1nc2ccc(Cl)cc2c(-c2ccccc2)c1C(=O)O[C@H](C)c1ccccc1 [PT-015, (1R)-1-phenylethyl 6-chloro-2-methyl-4-phenylquinoline-3-carboxylate]	37
Cc1nc2ccc(Cl)cc2c(-c2ccccc2)c1C(=O)OCc1ccc(Cn2cccn2)cc1 [PT-018, 4-(1H-pyrazol-1-ylmethyl)benzyl 6-chloro-2-methyl-4-phenylquinoline-3-carboxylate]	54.5
COC(=O)c1c(C)nc2ccccc2c1C [PT-025, methyl 2,4-dimethylquinoline-3-carboxylate]	26.6
